Measurements as given in ChEMBL document CHEMBL5143603, “Discovery of novel 2,8-diazaspiro[4.5]decan-1-one derivatives as potent RIPK1 kinase inhibitors” (Bioorg Med Chem, 2022).

What was measured:
[1] = biological target: T1, Receptor-interacting serine/threonine-protein kinase 1 (Homo sapiens, UniProt Q13546); test: Inhibition of human RIPK1 incubated for 40 min in presence of ATP by ADP-Glo luminescence kinase assay
T1 sequence (Q13546 whole entry): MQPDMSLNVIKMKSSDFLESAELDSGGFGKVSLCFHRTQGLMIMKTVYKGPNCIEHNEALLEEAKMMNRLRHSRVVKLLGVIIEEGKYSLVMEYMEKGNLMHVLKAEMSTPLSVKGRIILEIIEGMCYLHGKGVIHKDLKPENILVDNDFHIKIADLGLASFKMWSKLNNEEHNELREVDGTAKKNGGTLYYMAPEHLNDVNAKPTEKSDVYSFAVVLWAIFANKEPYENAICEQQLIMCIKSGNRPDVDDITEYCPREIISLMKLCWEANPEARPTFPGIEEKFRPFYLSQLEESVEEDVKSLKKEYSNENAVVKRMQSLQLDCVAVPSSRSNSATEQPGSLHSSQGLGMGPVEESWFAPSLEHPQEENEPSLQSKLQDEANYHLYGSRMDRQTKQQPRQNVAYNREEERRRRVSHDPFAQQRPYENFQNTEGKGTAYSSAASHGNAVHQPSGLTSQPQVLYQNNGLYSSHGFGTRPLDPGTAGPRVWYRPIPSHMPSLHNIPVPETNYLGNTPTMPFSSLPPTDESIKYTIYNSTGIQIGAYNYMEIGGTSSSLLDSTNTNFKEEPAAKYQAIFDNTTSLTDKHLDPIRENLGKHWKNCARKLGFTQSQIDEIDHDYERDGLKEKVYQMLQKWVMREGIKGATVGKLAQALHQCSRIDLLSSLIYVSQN

U-937 [2] = test: Anti-necroptotic activity in human U-937 cells assessed as inhibition of LPS/Z-VAD-fmk (LSZ)-induced necroptosis preincubated with PMA followed by compound addition and measured after 9 hrs by CCK8 assay; format: functional, cell-based; settings: DDE = dose-dependent effect
U-937 [3] = test: Anti-necroptotic activity in human U-937 cells assessed as decrease in phosphorylation of MLKL level preincubated with PMA and LPS followed by compound addition and measured after 9 hrs by western blot analysis; format: functional, cell-based; settings: DDE = dose-dependent effect

| IC50 [1] | Structure (SMILES) | Activity (U-937 [2]) | Activity (U-937 [3]) |
| --- | --- | --- | --- |
| 0.298 µM | CCC(C)(C)C(=O)N(O)Cc1ccccc1 |  |  |
|  | Cn1ccc2ccc(C(=O)N3CCC4(CC3)CCN(Cc3cc(F)ccc3F)C4=O)cc21 | Dde | Dde |
| 1.01 µM | O=C(c1ccccc1)N1CCC2(CC1)CN(Cc1ccccc1)C2=O |  |  |
| 1.14 µM | CN1C(=O)C(Cc2c[nH]c3ccccc23)NC1=S (stereo not given) [NECROSTATIN] |  |  |
